Where “and” joins values, the source holds several entries; their conditions need not be identical. Equal values may be shown once. Toxic doses and inconclusive results are not listed. Rule as the data show it: active = T/C of 150% or more; inactive = T/C below 125%.
Test system: L1210 leukemia ip in BDF1 mice, survival T/C
Assay: NCI In Vivo Anticancer Drug Screen. Data for tumor model L1210 Leukemia (intraperitoneal) in B6D2F1 (BDF1) mice
Conditions: endpoint: mean survival time, higher = longer survival
Method in brief: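 Ratio derived from survival: compound-dosed mice over vehicle-dosed mice, all bearing a transplantable tumor.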

[1] = dose: 100.0 mg/kg/injection, schedule: Q01DX001 (ip), vehicle: carboxymethylcellulose (CMC)
[2] = dose: 100.0 mg/kg/injection, schedule: Q04DX003 (ip), vehicle: carboxymethylcellulose (CMC)
[3] = dose: 200.0 mg/kg/injection, schedule: Q01DX001 (ip), vehicle: carboxymethylcellulose (CMC)
[4] = dose: 200.0 mg/kg/injection, schedule: Q04DX003 (ip), vehicle: carboxymethylcellulose (CMC)
[5] = dose: 400.0 mg/kg/injection, schedule: Q01DX001 (ip), vehicle: carboxymethylcellulose (CMC)
[6] = dose: 400.0 mg/kg/injection, schedule: Q04DX003 (ip), vehicle: carboxymethylcellulose (CMC)
[7] = dose: 100.0 mg/kg/injection, schedule: Q04DX002 (ip), vehicle: saline with Tween-80
[8] = dose: 100.0 mg/kg/injection, schedule: Q04DX003 (ip), vehicle: saline with Tween-80
[9] = dose: 200.0 mg/kg/injection, schedule: Q04DX002 (ip), vehicle: saline with Tween-80
[10] = dose: 400.0 mg/kg/injection, schedule: Q04DX002 (ip), vehicle: saline with Tween-80
[11] = dose: 100.0 mg/kg/injection, schedule: Q01DX009 (ip), vehicle: Klucel (hydroxypropylcellulose) (HPC)
[12] = dose: 100.0 mg/kg/injection, schedule: Q04DX003 (ip), vehicle: Klucel (hydroxypropylcellulose) (HPC)
[13] = dose: 200.0 mg/kg/injection, schedule: Q01DX009 (ip), vehicle: Klucel (hydroxypropylcellulose) (HPC)
[14] = dose: 200.0 mg/kg/injection, schedule: Q04DX003 (ip), vehicle: Klucel (hydroxypropylcellulose) (HPC)
[15] = dose: 400.0 mg/kg/injection, schedule: Q01DX009 (ip), vehicle: Klucel (hydroxypropylcellulose) (HPC)
[16] = dose: 400.0 mg/kg/injection, schedule: Q04DX003 (ip), vehicle: Klucel (hydroxypropylcellulose) (HPC)

Measured: T/C

NC(=O)c1ccnn1C1OC(CO)C(O)C1O (centres undefined)
inactive: dose: 50.0 mg/kg/injection, schedule: Q01DX005 (ip), vehicle: water 102 % of control | dose: 100.0 mg/kg/injection, schedule: Q01DX005 (ip), vehicle: water 102 % of control | dose: 200.0 mg/kg/injection, schedule: Q01DX005 (ip), vehicle: water 105 % of control

CCN(CC)CCCC(C)NC(=O)c1cccc2c([N+](=O)[O-])cccc12 (centres undefined)
inactive: dose: 25.0 mg/kg/injection, schedule: Q01DX009 (ip), vehicle: water 100 % of control | dose: 50.0 mg/kg/injection, schedule: Q01DX009 (ip), vehicle: water 108 % of control | dose: 100.0 mg/kg/injection, schedule: Q01DX009 (ip), vehicle: water 103 % of control

CC(=O)OCc1ccc(O)c2ncccc12
inactive: dose: 75.0 mg/kg/injection, schedule: Q01DX001 (ip), vehicle: carboxymethylcellulose (CMC) 96 % of control | dose: 150.0 mg/kg/injection, schedule: Q01DX001 (ip), vehicle: carboxymethylcellulose (CMC) 100 % of control

CC(=O)Nc1ccc(NC(=O)Nc2ccc(Cl)cc2)cc1
inactive: dose: 25.0 mg/kg/injection, schedule: Q01DX001 (ip), vehicle: carboxymethylcellulose (CMC) 92 % of control and 90 % of control | dose: 50.0 mg/kg/injection, schedule: Q01DX001 (ip), vehicle: carboxymethylcellulose (CMC) 93 % of control and 97 % of control | [1] 95 % of control and 101 % of control and 87 % of control | dose: 100.0 mg/kg/injection, schedule: Q01DX009 (ip), vehicle: carboxymethylcellulose (CMC) 93 % of control and 94 % of control | [2] 87 % of control and 88 % of control | [3] 94 % of control | dose: 200.0 mg/kg/injection, schedule: Q01DX009 (ip), vehicle: carboxymethylcellulose (CMC) 92 % of control and 94 % of control | [4] 92 % of control and 90 % of control | [5] 95 % of control | dose: 400.0 mg/kg/injection, schedule: Q01DX009 (ip), vehicle: carboxymethylcellulose (CMC) 104 % of control and 122 % of control | [6] 98 % of control and 87 % of control

CSc1ccc(NC(=O)OCC2CC3C=CC2C3)cc1 (centres undefined)
inactive: dose: 100.0 mg/kg/injection, schedule: Q01DX009 (ip), vehicle: saline with Tween-80 96 % of control and 92 % of control | [7] 89 % of control | [8] 95 % of control | dose: 200.0 mg/kg/injection, schedule: Q01DX009 (ip), vehicle: saline with Tween-80 94 % of control and 110 % of control | [9] 89 % of control | dose: 200.0 mg/kg/injection, schedule: Q04DX003 (ip), vehicle: saline with Tween-80 93 % of control | dose: 400.0 mg/kg/injection, schedule: Q01DX009 (ip), vehicle: saline with Tween-80 94 % of control and 100 % of control | [10] 111 % of control | dose: 400.0 mg/kg/injection, schedule: Q04DX003 (ip), vehicle: saline with Tween-80 98 % of control

O=S(=O)(ON=C1C=CC(=NOS(=O)(=O)c2ccccc2)C=C1)c1ccccc1
inactive: dose: 50.0 mg/kg/injection, schedule: Q01DX001 (ip), vehicle: saline 96 % of control | dose: 100.0 mg/kg/injection, schedule: Q01DX001 (ip), vehicle: saline 93 % of control | dose: 200.0 mg/kg/injection, schedule: Q01DX001 (ip), vehicle: saline 93 % of control | dose: 400.0 mg/kg/injection, schedule: Q01DX001 (ip), vehicle: saline 93 % of control

O=C1/C(=C\c2cccnc2)CCCc2ccccc21
inactive: [2] 100 % of control | [4] 98 % of control | [6] 98 % of control

C[N+](C)(C)CCCCCCCC[N+](C)(C)CCCCCCCCCC[N+](C)(C)CCCCCCCC[N+](C)(C)C
inactive: dose: 23.0 micrograms/kg/injection, schedule: Q04DX003 (ip), vehicle: saline 97 % of control | dose: 45.0 micrograms/kg/injection, schedule: Q04DX003 (ip), vehicle: saline 105 % of control | dose: 90.0 micrograms/kg/injection, schedule: Q04DX003 (ip), vehicle: saline 103 % of control

COc1ccc(OC)c(NC(=S)N/N=C(/C)c2cc([N+](=O)[O-])c(O)cc2O)c1
inactive: dose: 12.5 mg/kg/injection, schedule: Q04DX002 (ip), vehicle: Klucel (hydroxypropylcellulose) (HPC) 102 % of control | dose: 25.0 mg/kg/injection, schedule: Q04DX002 (ip), vehicle: Klucel (hydroxypropylcellulose) (HPC) 102 % of control | dose: 50.0 mg/kg/injection, schedule: Q04DX002 (ip), vehicle: Klucel (hydroxypropylcellulose) (HPC) 105 % of control

COc1ccc(C=O)c(Br)c1O
inactive: [11] 103 % of control | [12] 104 % of control | [13] 97 % of control | [14] 103 % of control | [15] 97 % of control | [16] 101 % of control

Cc1c(C)c([N+](=O)[O-])c(C)c(C)c1[N+](=O)[O-]
inactive: [11] 91 % of control | [12] 96 % of control | [13] 98 % of control | [14] 100 % of control | [15] 93 % of control | [16] 101 % of control

CCCCCOC(=O)c1ccc(C)s1
inactive: [1] 90 % of control | [3] 101 % of control | [5] 98 % of control

C1CC2OC2CC1C1CO1 (centres undefined)
inactive: dose: 100.0 mg/kg/injection, schedule: Q04DX003 (ip), vehicle: saline 105 % of control | dose: 200.0 mg/kg/injection, schedule: Q04DX003 (ip), vehicle: saline 109 % of control | dose: 400.0 mg/kg/injection, schedule: Q04DX003 (ip), vehicle: saline 102 % of control

CC1(C)C2CCC1(C)C(c1ccc(O)cc1)C2 (centres undefined)
inactive: [12] 104 % of control | [14] 101 % of control | [16] 102 % of control

Clc1ccc2c(c1)N(C1CCCN(Cc3ccccc3)C1)c1ccccc1S2 (centres undefined)
inactive: [1] 94 % of control | [3] 94 % of control | [5] 90 % of control

O=C(CCCCC(=O)NO)NO
inactive: [7] 110 % of control | dose: 100.0 mg/kg/injection, schedule: Q04DX002 (ip), vehicle: saline 103 % of control | [9] 110 % of control | dose: 200.0 mg/kg/injection, schedule: Q04DX002 (ip), vehicle: saline 90 % of control | [10] 107 % of control | dose: 400.0 mg/kg/injection, schedule: Q04DX002 (ip), vehicle: saline 107 % of control

O=C(O)c1cccc(CCc2ccccc2)c1
inactive: dose: 100.0 mg/kg/injection, schedule: Q01DX001 (ip), vehicle: Klucel (hydroxypropylcellulose) (HPC) 102 % of control | dose: 200.0 mg/kg/injection, schedule: Q01DX001 (ip), vehicle: Klucel (hydroxypropylcellulose) (HPC) 100 % of control

Cn1c(C(N)=O)cc(=O)n1-c1ccc([N+](=O)[O-])cc1
inactive: [12] 101 % of control | [14] 97 % of control | [16] 101 % of control

O=C(NCCCl)Nc1ccc2c3c1CCCC3CC2 (centres undefined)
inactive: dose: 50.0 mg/kg/injection, schedule: Q04DX003 (ip), vehicle: Klucel (hydroxypropylcellulose) (HPC) 106 % of control | [12] 107 % of control | [14] 102 % of control

CCN(CC)CCC(C=NCC(CCN(CC)CC)(c1cccc2ccccc12)C(C)C)(c1cccc2ccccc12)C(C)C (centres undefined)
inactive: dose: 1.5 mg/kg/injection, schedule: Q04DX002 (ip), vehicle: saline + alcohol 108 % of control | dose: 3.1 mg/kg/injection, schedule: Q04DX002 (ip), vehicle: saline + alcohol 102 % of control | dose: 6.25 mg/kg/injection, schedule: Q04DX002 (ip), vehicle: saline + alcohol 94 % of control | dose: 12.5 mg/kg/injection, schedule: Q04DX002 (ip), vehicle: saline + alcohol 92 % of control | dose: 25.0 mg/kg/injection, schedule: Q04DX002 (ip), vehicle: saline + alcohol 92 % of control | dose: 25.0 mg/kg/injection, schedule: Q04DX002 (ip), vehicle: saline with Tween-80 92 % of control

NC(=O)N/N=C\c1ccco1
inactive: dose: 25.0 mg/kg/injection, schedule: Q04DX003 (ip), vehicle: saline with Tween-80 106 % of control | dose: 50.0 mg/kg/injection, schedule: Q04DX003 (ip), vehicle: saline with Tween-80 100 % of control | [12] 106 % of control | [8] 94 % of control | [14] 102 % of control | [16] 98 % of control

CSc1nc(N)c(N)c(N)n1
inactive: dose: 100.0 mg/kg/injection, schedule: Q04DX002 (ip), vehicle: Klucel (hydroxypropylcellulose) (HPC) 103 % of control | dose: 200.0 mg/kg/injection, schedule: Q04DX002 (ip), vehicle: Klucel (hydroxypropylcellulose) (HPC) 110 % of control | dose: 400.0 mg/kg/injection, schedule: Q04DX002 (ip), vehicle: Klucel (hydroxypropylcellulose) (HPC) 103 % of control
